Measured values: the supplement of paper PMC10307832

Assays:
Assay in all cases: relative viability (nuclei count vs DMSO), 5 days (fraction); higher = more cells survive
[1] = compound: CCN1CCC(CC1)N2C=C(N=N2)CNC3=CC4=C(C(=CN=C4C(=C3)Cl)C#N)NC5=CC(=C(C=C5)F)Cl [KIN001-266] + CC(=O)Nc1cccc(-n2c(=O)n(C3CC3)c(=O)c3c(Nc4ccc(I)cc4F)n(C)c(=O)c(C)c32)c1 [Trametinib] (partner 0.02 µM)
In short: (§1)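 Nuclei were stained with Hoechst during a one-step fixation (final 0.05% Triton X-100, 1% formaldehyde, 1 ug/ml Hoechst) carried out 5 days after dosing, then counted on 4× images. The cells, lung cancer lines in 1536-well plates, had been dosed by pin tool the day after seeding with one drug alone or a fixed anchor-drug dose plus five library-drug doses (not always all listed) in √10 steps. Relative viability is the nuclei count in treated wells divided by that in vehicle wells, and each value is the median of duplicate plates.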

[2] = compound: CCN1CCC(CC1)N2C=C(N=N2)CNC3=CC4=C(C(=CN=C4C(=C3)Cl)C#N)NC5=CC(=C(C=C5)F)Cl [KIN001-266] + CS(=O)(=O)N1CCN(Cc2cc3nc(-c4cccc5[nH]ncc45)nc(N4CCOCC4)c3s2)CC1 [Pictilisib] (partner 1 µM)
In short: as §1

[3] = compound: CCN1CCC(CC1)N2C=C(N=N2)CNC3=CC4=C(C(=CN=C4C(=C3)Cl)C#N)NC5=CC(=C(C=C5)F)Cl [KIN001-266] + CC(C)C[C@H](NC(=O)[C@H](Cc1ccccc1)NC(=O)c1cnccn1)B(O)O [Bortezomib] (partner 0.002 µM)
In short: as §1

[4] = compound: CCN1CCC(CC1)N2C=C(N=N2)CNC3=CC4=C(C(=CN=C4C(=C3)Cl)C#N)NC5=CC(=C(C=C5)F)Cl [KIN001-266] + O=C(c1cc(Cc2n[nH]c(=O)c3ccccc23)ccc1F)N1CCN(C(=O)C2CC2)CC1 [Olaparib] (partner 8 µM)
In short: as §1

Cell Line	relative viability ([1]; first compound 0.08 µM)	relative viability ([1]; first compound 0.253 µM)	relative viability ([1]; first compound 0.8 µM)	relative viability ([1]; first compound 2.53 µM)	relative viability ([1]; first compound 8 µM)	relative viability ([2]; first compound 0.08 µM)	relative viability ([2]; first compound 0.253 µM)	relative viability ([2]; first compound 0.8 µM)	relative viability ([2]; first compound 2.53 µM)	relative viability ([2]; first compound 8 µM)	relative viability ([3]; first compound 0.08 µM)	relative viability ([3]; first compound 0.253 µM)	relative viability ([3]; first compound 0.8 µM)	relative viability ([3]; first compound 2.53 µM)	relative viability ([3]; first compound 8 µM)	relative viability ([4]; first compound 0.08 µM)	relative viability ([4]; first compound 0.253 µM)	relative viability ([4]; first compound 0.8 µM)	relative viability ([4]; first compound 2.53 µM)	relative viability ([4]; first compound 8 µM)
NCI-H647	0.452	0.443	0.474	0.419	0.375	0.461	0.405	0.491	0.282	0.414	1	1.03	1.14	1.07	0.935	0.565	0.516	0.701	0.501	0.301
NCI-H650	0.982	0.974	0.942	0.944	0.979	0.924	0.899	0.917	0.921	0.908	0.997	0.844	0.997	0.771	0.768	0.452	0.381	0.349	0.336	0.34
NCI-H661	0.566	0.624	0.595	0.5	0.435	0.43	0.412	0.433	0.363	0.568	0.784	0.755	0.878	0.837	0.566	0.741	0.732	0.707	0.617	0.459
NCI-H727	0.431	0.384	0.391	0.391	0.402	0.389	0.351	0.327	0.264	0.304	0.843	0.893	0.889	0.864	0.514	0.679	0.649	0.626	0.683	0.531
NCI-H838	0.535	0.494	0.557	0.465	0.385	0.521	0.423	0.515	0.304	0.238	0.831	0.737	0.85	0.719	0.56	0.775	0.811	0.764	0.68	0.471
NCI-H1355	0.445	0.473	0.48	0.406	0.394	0.481	0.408	0.399	0.303	0.378	1.23	1.23	1.1	1.26	1.18	0.765	0.769	0.699	0.716	0.731
NCI-H1437	0.581	0.577	0.539	0.561	0.383	0.357	0.464	0.413	0.359	0.177	0.534	0.435	0.514	0.493	0.447	0.644	0.649	0.666	0.582	0.377
NCI-H1650	0.581	0.602	0.42	0.457	0.373	0.618	0.621	0.554	0.524	0.479	0.241	0.203	0.191	0.214	0.19	0.708	0.751	0.655	0.587	0.437
NCI-H1651	0.847	0.833	0.772	0.771	0.854	0.582	0.601	0.51	0.633	0.435	0.98	0.969	0.869	0.93	0.897	0.185	0.165	0.175	0.15	0.167
NCI-H1666	0.909	0.897	0.713	0.855	0.761	0.608	0.523	0.49	0.367	0.347	1.03	0.826	0.668	0.785	0.686	0.77	0.754	0.607	0.739	0.73
NCI-H1734	0.671	0.715	0.606	0.672	0.608	0.521	0.452	0.454	0.418	0.43	1.07	0.842	0.822	0.805	0.768	0.719	0.6	0.505	0.551	0.425
NCI-H1755	0.727	0.802	0.775	0.792	0.684	0.463	0.447	0.387	0.458	0.398	0.956	0.972	0.847	0.918	0.884	0.933	0.865	0.896	0.864	0.815
NCI-H1792	0.372	0.341	0.43	0.416	0.476	0.312	0.282	0.325	0.305	0.265	0.962	0.927	0.879	0.917	0.948	0.384	0.418	0.485	0.369	0.399
NCI-H1915	0.312	0.302	0.298	0.293	0.223	1.03	0.949	0.947	1.05	0.781	0.979	0.986	0.997	0.877	0.898	0.253	0.25	0.241	0.234	0.211
NCI-H1975	0.435	0.343	0.346	0.461	0.325	0.316	0.308	0.304	0.294	0.326	0.373	0.462	0.404	0.336	0.336	0.823	0.81	0.791	0.734	0.69
